Laboratory results: patent publication US20240327393A1 (SIRONAX LTD., priority 2021, published 2024)

system: HT-1080 (ATCC, CCL-121) cells; assay: HT-1080 cell viability assay with ferroptosis inducer RSL3 (Cell Titer-Glo); type: cell-based; conditions: Homo sapiens; HT-1080 cells treated with RSL3; 3-fold, 10-point dilution, 1.1 μM highest concentration; Table 2; read-out: EC50 (nM), ferroptosis inhibitory activity
In short: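 EC50 was derived by sigmoidal dose-response regression of CellTiter-Glo luminescence viability, expressed relative to untreated wells. Compounds were tested in a ten-point, threefold dilution series (highest 1.1 μM) in the presence of the ferroptosis inducer RSL3. HT-1080 cells had been seeded at 6000 per well and grown overnight first.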

Row | EC50 | SMILES
1 | 0.1 to 100 nM | Cn1c(=O)n(C)c2cc(Nc3ccc(N4CCC(C(F)(F)F)CC4)cc3C#N)ccc21 [Compound 374, 2-((1,3-dimethyl-2-oxo-2,3-dihydro-1H-benzo[d]imidazol-5-yl)amino)-5-(4-(trifluoromethyl)piperidin-1-yl)benzonitrile]
2 | 0.1 to 100 nM | Cc1c(Nc2ccc3c(c2)n(C)c(=O)n3C)ccc(N2CCC(C)CC2)c1C [Compound 281, 5-((2,3-dimethyl-4-(4-methylpiperidin-1-yl)phenyl)amino)-1,3-dimethyl-1,3-dihydro-2H-benzo[d]imidazol-2-one]
3 | 0.1 to 100 nM | CC1CCN(c2ccc(Nc3ccc4c(c3)c(N)nn4C)cc2)CC1 [Compound 352, 1-methyl-N5-(4-(4-methylpiperidin-1-yl)phenyl)-1H-indazole-3,5-diamine]
4 | 0.1 to 100 nM | Cn1c(=O)oc2ccc(Nc3ccc(N4CCCCC4)cc3)cc21 [Compound 389, 3-methyl-5-((4-(piperidin-1-yl)phenyl)amino)benzo[d]oxazol-2(3H)-one]
5 | 0.1 to 100 nM | NC(=O)n1ncc2cc(Nc3ccc(N4CCC(C(F)(F)F)CC4)cc3)ccc21 [Compound 398, 5-((4-(4-(trifluoromethyl)piperidin-1-yl)phenyl)amino)-1H-indazole-1-carboxamide]
6 | 0.1 to 100 nM | Cn1ccc2ccc(Nc3ccc(N4CCC(C(F)(F)F)CC4)cc3)cc21 [Compound 348, 1-methyl-N-(4-(4-(trifluoromethyl)piperidin-1-yl)phenyl)-1H-indol-6-amine]
7 | 0.1 to 100 nM | CN1C(=O)C(C)(C)c2ccc(Nc3ccc(N4CCC(C(F)(F)F)CC4)cc3)cc21 [Compound 335, 1,3,3-trimethyl-6-((4-(4-(trifluoromethyl)piperidin-1-yl)phenyl)amino) indolin-2-one]
8 | 0.1 to 100 nM | Cn1c(=N)n(C)c2cc(Nc3ccc(N4CCC(C(F)(F)F)CC4)cc3)ccc21 [Compound 302, 2-imino-1,3-dimethyl-N-(4-(4-(trifluoromethyl)piperidin-1-yl)phenyl)-2,3-dihydro-1H-benzo[d]imidazol-5-amine]
9 | 0.1 to 100 nM | Cn1c(=O)oc2cc(Nc3ccc(N4CC5(CCCC5)C4)cc3)ccc21 [Compound 316, 6-((4-(2-azaspiro[3.4]octan-2-yl)phenyl)amino)-3-methy/benzo[d]oxazol-2′3H-one]
10 | 0.1 to 100 nM | Cn1c(=O)n(C)c2cc(Nc3ccc(N4CCC(O)(C(F)(F)F)CC4)cc3)ccc21 [Compound 332, 5-((4-(4-hydroxy-4-(trifluoromethyl)piperidin-1-yl)phenyl)amino)-1,3-dimethyl-1,3-dihydro-2H-benzo[d]imidazol-2-one]
11 | 0.1 to 100 nM | CC1CN(c2ccc(Nc3ccc4c(c3)ncn4C)cc2)CC(C)O1 (stereo not shown) [Compound 434, N-(4-(2,6-dimethylmorpholino)phenyl)-1-methyl-1H-benzo[d]imidazol-5-amine]
12 | 0.1 to 100 nM | CC1CN(c2ccc(Nc3ccc4oc(=O)n(C)c4c3)cc2)CC(C)O1 (stereo not shown) [Compound 420, 5-((4-(2,6-dimethylmorpholino)phenyl)amino)-3-methylbenzo[d]oxazol-2(3H)-one]

Second part, the compound before the results:

Row | SMILES | EC50
13 | Cc1cc(N2CCC(C)CC2)c(F)cc1Nc1ccc2c(c1)n(C)c(=O)n2C [Compound 264, 5-((5-fluoro-2-methyl-4-(4-methylpiperidin-1-yl)phenyl)amino)-1,3-dimethyl-1,3-dihydro-2H-benzo[d]imidazol-2-one] | 0.1 to 100 nM
14 | CC(=O)N1Cc2ccc(Nc3ccc(N4CCC(F)(F)CC4)cc3)cc2C1 [Compound 166, 1-(5-((4-(4,4-difluoropiperidin-1-yl)phenyl)amino)isoindolin-2-yl) ethan-1-one] | 0.1 to 100 nM
15 | CC1CCN(c2ccc(Nc3ccc4c(c3)OCC(=O)N4C)cc2)CC1 [Compound 1, 4-methyl-7-((4-(4-methylpiperidin-1-yl)phenyl)amino)-2H-benzo[b][1,4]oxazin-3(4H)-one] | 0.1 to 100 nM
16 | CN1CCN(CC(=O)N2Cc3ccc(Nc4ccc(N5CCCCC5)cc4)cc3C2)CC1 [Compound 163, 2-(4-methylpiperazin-1-yl)-1-(5-((4-(piperidin-1-yl)phenyl)amino)isoindolin-2-yl)ethan-1-one] | 0.1 to 100 nM
17 | CN1C(=O)COc2cc(Nc3cc(F)c(N4CCC(C(F)(F)F)CC4)c(F)c3)ccc21 [Compound 57, 7-((3,5-difluoro-4-(4-(trifluoromethyl)piperidin-1-yl)phenyl)amino)-4-methyl-2H-benzo[b][1,4]oxazin-3(4H)-one] | 0.1 to 100 nM
18 | CNc1cc(Nc2ccc3c(c2)OCC(=O)N3C)ccc1N1CC(C)OC(C)C1 (stereo not shown) [Compound 19, 7-((4-(2,6-dimethylmorpholino)-3-(methylamino)phenyl)amino)-4-methyl-2H-benzo[b][1,4]oxazin-3(4H)-one] | 0.1 to 100 nM
19 | CN1Cc2cc(Nc3ccc(-c4ccccc4)cc3)ccc2C1=O [Compound 228, 5-([1,1′-biphenyl]-4-ylamino)-2-methylisoindolin-1-one] | 0.1 to 100 nM
20 | Cn1c(=O)oc2cc(Nc3ccc(N4CCC(C(F)(F)F)CC4)cc3)ccc21 [Compound 256] | 0.1 to 100 nM
21 | CN1C(=O)COc2cc(Nc3ccc(C(C)(C)C)cc3)ccc21 [Compound 47, 7-((4-(tert-butyl)phenyl)amino)-4-methyl-2H-benzo[b][1,4]oxazin-3(4H)-one] | 0.1 to 100 nM
22 | CC1CN(c2ccc(Nc3ccc4c(c3)OCC(=O)N4CCN(C)C)cc2)CC(C)O1 (stereo not shown) [Compound 80, 4-(2-(dimethylamino)ethyl)-7-((4-(2,6-dimethylmorpholino)phenyl)amino)-2H-benzo[b][1,4]oxazin-3(4H)-one] | 0.1 to 100 nM
23 | CC1CCN(c2ccc(Nc3ccc4c(=O)n(C)n(C)c4c3)cc2)CC1 [Compound 250, 1,2-dimethyl-6-((4-(4-methylpiperidin-1-yl)phenyl)amino)-1,2-dihydro-3H-indazol-3-one] | 0.1 to 100 nM
24 | CCCCCN(CC)c1ccc(Nc2ccc3c(c2)n(C)c(=O)n3C)cc1 [Compound 260, 5-((4-(ethyl(pentyl)amino)phenyl)amino)-1,3-dimethyl-1,3-dihydro-2H-benzo[d]imidazol-2-one] | 0.1 to 100 nM
25 | CN(C)CCN1C(=O)COc2cc(Nc3ccc(N4CCC(C(F)(F)F)CC4)cc3)ccc21 [Compound 94, 4-(2-(dimethylamino)ethyl)-7-((4-(4-(trifluoromethyl)piperidin-1-yl)phenyl)amino)-2H-benzo[b][1,4]oxazin-3(4H)-one] | 0.1 to 100 nM
26 | CN1C(=O)COc2cc(Nc3cnc(N4CCC(C(F)(F)F)CC4)nc3)ccc21 [Compound 58, 4-methyl-7-((2-(4-(trifluoromethyl)piperidin-1-yl)pyrimidin-5-yl)amino)-2H-benzo[b][1,4]oxazin-3(4H)-one] | 0.1 to 100 nM
27 | CC(C)(C)c1ccc(Nc2ccc3c(c2)OCC(=O)N3CCO)cc1 [Compound 82, 7-((4-(tert-butyl)phenyl)amino)-4-(2-hydroxyethyl)-2H-benzo[b][1,4]oxazin-3(4H)-one] | 0.1 to 100 nM
28 | CN1C(=O)OCc2cc(Nc3ccc(N4CCC(C(F)(F)F)CC4)cc3)ccc21 [Compound 128, 1-methyl-6-((4-(4-(trifluoromethyl)piperidin-1-yl)phenyl)amino)-1,4-dihydro-2H-benzo[d][1,3]oxazin-2-one] | 0.1 to 100 nM

same assay, conditions: Homo sapiens; HT-1080 cells treated with RSL3; 3-fold, 10-point dilution, 1.1 μM highest concentration; Table 3; read-out: EC50 (nM), ferroptosis inhibitory activity

Row | EC50 | SMILES
29 | 0.1 to 100 nM | COC1(C(F)(F)F)CCN(c2ccc(Nc3ccc4c(c3)OCC(=O)N4)c(C)c2)C1 (stereo not shown) [Compound 616, 7-((4-(3-methoxy-3-(trifluoromethyl)pyrrolidin-1-yl)-2-methylphenyl)amino)-2H-benzo[b][1,4]oxazin-3(4H)-one]
30 | 0.1 to 100 nM | Cc1cc(N2CCC(F)CC2)ccc1Nc1cnc2c(c1)OCC(=O)N2 [Compound 558, 7-(4-(4-fluoropiperidin-1-yl)-2-methylphenylamino)-2H-pyrido[3,2-b][1,4]oxazin-3(4H)-one]
31 | 0.1 to 100 nM | Cc1cc(N2CCC(OC(F)(F)F)C2)ccc1Nc1ccc2c(c1)OCC(=O)N2 (stereo not shown) [Compound 589, 7-((2-methyl-4-(3-(trifluoromethoxy)pyrrolidin-1-yl)phenyl)amino)-2H-benzo[b][1,4]oxazin-3(4H)-one]
32 | 0.1 to 100 nM | O=C1CSc2cc(Nc3ccc(N4CCC(C(F)(F)F)CC4)cc3)ccc2N1 [Compound 582, 7-((4-(4-(trifluoromethyl)piperidin-1-yl)phenyl)amino)-2H-benzo[b][1,4]thiazin-3(4H)-one]
33 | 0.1 to 100 nM | Cc1cc(N2CCC(C(F)(F)F)CC2)ccc1Nc1ccc2c(c1)OCCC(=O)N2 [Compound 533]
34 | 0.1 to 100 nM | CCNc1ccc(Nc2ccc3c(c2)OCC(=O)N3)c(C)c1 [Compound 635, 7-((4-(ethylamino)-2-methylphenyl)amino)-2H-benzo[b][1,4]oxazin-3(4H)-one]
35 | 0.1 to 100 nM | CC(C)(O)C1CCN(c2ccc(Nc3ccc4c(c3)OCC(=O)N4)cc2)CC1 [Compound 543, 7-((4-(4-(2-hydroxypropan-2-yl)piperidin-1-yl)phenyl)amino)-2H-benzo[b][1,4]oxazin-3(4H)-on]
36 | 0.1 to 100 nM | O=C1COc2cc(Nc3ccc(N4CCC(C(F)(F)F)CC4)c(F)c3)ccc2N1 [Compound 486, 7-((3-fluoro-4-(4-(trifluoromethyl)piperidin-1-yl)phenyl)amino)-2H-benzo[b][1,4]oxazin-3(4H)-one]
37 | 0.1 to 100 nM | Cc1cc(N2CCC(C(F)(F)F)CC2)ccc1Nc1ccc2[nH]cnc2c1 [Compound 567]
38 | 0.1 to 100 nM | Cc1cc(Nc2cc(F)c3c(c2)OCC(=O)N3)ccc1N1CCC(C(F)(F)F)CC1 [Compound 481, 5-fluoro-7-((3-methyl-4-(4-(trifluoromethyl)piperidin-1-yl)phenyl)amino)-2H-benzo[b][1,4]oxazin-3(4H)-one]
39 | 0.1 to 100 nM | Cc1cc(N2CC3CC3C2)ccc1Nc1ccc2c(c1)OCC(=O)N2 (stereo not shown) [Compound 641, 7-((4-(3-azabicyclo[3.1.0]hexan-3-yl)-2-methylphenyl)amino)-2H-benzo[b][1,4]oxazin-3(4H)-one]
40 | 0.1 to 100 nM | Cc1cc(N2C[C@@H](C)O[C@@H](C)C2)ccc1Nc1ccc2cn[nH]c2c1 [Compound 648, N-(2-methyl-4-((2S,6R)-2,6-dimethylmorpholino)phenyl)-1H-indazol-6-amine]
